According to PubChem BioAssay AID1259407 (Chemical Carcinogenesis Research Information System (CCRIS), 2018):
Activity calls are given as the source filed them. No rule for the calls is given here.

Tested on: CCRIS mutagenicity, Ames/micronucleus/aberration tests
Assay: CCRIS mutagenicity studies
[1] = Test System: AMES SALMONELLA TYPHIMURIUM, Strain/Indicator: TA100, Metabolic Activation: NONE, Method: PREINCUBATION
[2] = Test System: AMES SALMONELLA TYPHIMURIUM, Strain/Indicator: TA100, Metabolic Activation: NONE, Method: STANDARD PLATE
[3] = Test System: AMES SALMONELLA TYPHIMURIUM, Strain/Indicator: TA100, Metabolic Activation: RAT, LIVER, S-9, AROCLOR 1254, Method: STANDARD PLATE

For `CCN(N=O)C(N)=O`, the mutagenic call (End Point: IN VITRO CHROMOSOMAL ABERRATIONS, Test System: CHINESE HAMSTER V79-E CELLS, Metabolic Activation: NONE) was “inactive; negative”, the mutagenic call (End Point: IN VITRO MICRONUCLEUS, Test System: CHL/IU CELLS, Metabolic Activation: NONE) was “active; positive” and the mutagenic call (End Point: IN VIVO MICRONUCLEUS, Test System: BLOOD ERYTHROCYTES, Species: MOUSE, Strain/Sex: CD-1/MALE, Route: ORAL) was “active; positive”. For the same molecule, the mutagenic call (Test System: AMES SALMONELLA TYPHIMURIUM, Strain/Indicator: TA98, Metabolic Activation: HAMSTER, LIVER, S-9, AROCLOR 1254 (30%), Method: PREINCUBATION) was “active; positive”, the mutagenic call (Test System: AMES SALMONELLA TYPHIMURIUM, Strain/Indicator: TA98, Metabolic Activation: NONE, Method: PREINCUBATION) was “active; positive” and the mutagenic call (Test System: AMES SALMONELLA TYPHIMURIUM, Strain/Indicator: TA98, Metabolic Activation: RAT, LIVER, S-9, AROCLOR 1254 (30%), Method: PREINCUBATION) was “active; positive”. The mutagenic call (Test System: AMES SALMONELLA TYPHIMURIUM, Strain/Indicator: TA100, Metabolic Activation: HAMSTER, LIVER, S-9, AROCLOR 1254 (30%), Method: PREINCUBATION) was “active; positive”, the mutagenic call [1] was “active; positive” and the mutagenic call [2] was “active; positive”. For the same molecule, the mutagenic call (Test System: AMES SALMONELLA TYPHIMURIUM, Strain/Indicator: TA100, Metabolic Activation: RAT, LIVER, S-9, AROCLOR 1254 (30%), Method: PREINCUBATION) was “active; positive”, the mutagenic call (Test System: AMES SALMONELLA TYPHIMURIUM, Strain/Indicator: TA100, Metabolic Activation: RAT, LIVER, S-9, AROCLOR 1254, Method: PREINCUBATION) was “active; positive” and the mutagenic call (Test System: AMES SALMONELLA TYPHIMURIUM, Strain/Indicator: TA102, Metabolic Activation: RAT, LIVER, S-9, AROCLOR 1254, Method: PREINCUBATION) was “active; positive”. The mutagenic call (Test System: AMES SALMONELLA TYPHIMURIUM, Strain/Indicator: TA104, Metabolic Activation: RAT, LIVER, S-9, AROCLOR 1254, Method: PREINCUBATION) was “active; positive”, the mutagenic call (Test System: AMES SALMONELLA TYPHIMURIUM, Strain/Indicator: TA1535, Metabolic Activation: NONE) was “active; positive” and the mutagenic call (Test System: AMES SALMONELLA TYPHIMURIUM, Strain/Indicator: TA1535, Metabolic Activation: NONE, Method: PREINCUBATION) was “active; positive”. For the same molecule, the mutagenic call (Test System: AMES SALMONELLA TYPHIMURIUM, Strain/Indicator: TA1535, Metabolic Activation: RAT, LIVER, S-9, AROCLOR 1254, Method: STANDARD PLATE) was “active; positive”, the mutagenic call (Test System: AMES SALMONELLA TYPHIMURIUM, Strain/Indicator: YG7104, Metabolic Activation: NONE, Method: PREINCUBATION) was “active; positive” and the mutagenic call (Test System: AMES SALMONELLA TYPHIMURIUM, Strain/Indicator: YG7108, Metabolic Activation: NONE, Method: PREINCUBATION) was “active; positive”. For the same molecule, the mutagenic call (Test System: AMES SALMONELLA TYPHIMURIUM, Strain/Indicator: YG7112, Metabolic Activation: NONE, Method: PREINCUBATION) was “active; positive”, the mutagenic call (Test System: AMES SALMONELLA TYPHIMURIUM, Strain/Indicator: YG7113, Metabolic Activation: NONE, Method: PREINCUBATION) was “active; positive” and the mutagenic call (Test System: CHINESE HAMSTER OVARY, Strain/Indicator: CHO-K1-BH4 (HGPRT), Metabolic Activation: NONE, Method: STANDARD PLATE) was “active; positive”. The mutagenic call (Test System: CHINESE HAMSTER V-79, Strain/Indicator: V-79/6-THIOGUANINE, Metabolic Activation: NONE, Method: FLASK ASSAY) was “active; positive”, the mutagenic call (Test System: E. COLI B, Strain/Indicator: H/R30R, Metabolic Activation: NONE) was “active; positive” and the mutagenic call (Test System: E. COLI B, Strain/Indicator: HS30R, Metabolic Activation: NONE) was “active; positive”. For the same molecule, the mutagenic call (Test System: E. COLI, Strain/Indicator: WP2, Metabolic Activation: NONE, Method: STANDARD PLATE) was “active; positive”, the mutagenic call (Test System: E. COLI, Strain/Indicator: WP2 UVRA, Metabolic Activation: NONE, Method: STANDARD PLATE) was “active; positive” and the mutagenic call (Test System: LacZ plasmid mouse (C57BL/6J transgenic), Strain/Indicator: LacZ Mutant frequency, Method: Bone marrow and liver harvested 35 days after last dose) was “active; positive”. For the same molecule, the mutagenic call (Test System: LacZ transgenic mouse (Muta Mouse), Strain/Indicator: LacZ Mutant frequency, Method: Bone marrow and liver harvested 35 days after last dose) was “active; positive”, the mutagenic call (Test System: MOUSE LYMPHOMA, Strain/Indicator: L5178Y(TK+/TK-), Metabolic Activation: NONE, Method: MICROWELL) was “active; positive” and the mutagenic call (Test System: UDS HUMAN FIBROBLASTS, Strain/Indicator: THY INCORP (NON-S-PHASE), Metabolic Activation: NONE, Method: LIQUID SCINTILLATION COUNTING) was “active; positive”. The mutagenic call (Test System: UDS HUMAN TRACHEAL EPITHELIAL CELLS, Strain/Indicator: THY INCORP, Metabolic Activation: NONE, Method: AUTORADIOGRAPHY) was “active; positive” and the mutagenic call (Test System: UDS MOUSE SPERMATOGONIAL AND POSTSPERMATOGONIAL CELLS IN VIVO, Strain/Indicator: THYMIDINE INCORPORATION, Metabolic Activation: NONE, Method: AUTORADIOGRAPHY) was “active; positive”.
For `O=C(O)c1ccc(Cl)cc1Cl`, the mutagenic call (Test System: Ames Salmonella typhimurium, Strain/Indicator: TA98, Metabolic Activation: None, Method: Preincubation) was “inactive; negative. precipitation at highest dose”, the mutagenic call (Test System: Ames Salmonella typhimurium, Strain/Indicator: TA98, Metabolic Activation: Rat, Liver, S9, Phenobarbital and 5,6-benzoflavone, Method: Preincubation) was “inactive; negative. precipitation at highest dose” and the mutagenic call (Test System: Ames Salmonella typhimurium, Strain/Indicator: TA100, Metabolic Activation: None, Method: Preincubation) was “inactive; negative. precipitation at highest dose”. For the same molecule, the mutagenic call (Test System: Ames Salmonella typhimurium, Strain/Indicator: TA100, Metabolic Activation: Rat, Liver, S9, Phenobarbital and 5,6-benzoflavone, Method: Preincubation) was “inactive; negative. precipitation at highest dose”, the mutagenic call (Test System: Ames Salmonella typhimurium, Strain/Indicator: TA1535, Metabolic Activation: None, Method: Preincubation) was “inactive; negative. precipitation at highest dose” and the mutagenic call (Test System: Ames Salmonella typhimurium, Strain/Indicator: TA1535, Metabolic Activation: Rat, Liver, S9, Phenobarbital and 5,6-benzoflavone, Method: Preincubation) was “inactive; negative. precipitation at highest dose”. For the same molecule, the mutagenic call (Test System: Ames Salmonella typhimurium, Strain/Indicator: TA1537, Metabolic Activation: None, Method: Preincubation) was “inactive; negative. precipitation at highest dose”, the mutagenic call (Test System: Ames Salmonella typhimurium, Strain/Indicator: TA1537, Metabolic Activation: Rat, Liver, S9, Phenobarbital and 5,6-benzoflavone, Method: Preincubation) was “inactive; negative. precipitation at highest dose” and the mutagenic call (Test System: E. coli, Strain/Indicator: WP2uvrA/pKM101, Metabolic Activation: None, Method: Preincubation) was “inactive; negative. precipitation at highest dose”. For the same molecule, the mutagenic call (Test System: E. coli, Strain/Indicator: WP2uvrA/pKM101, Metabolic Activation: Rat, Liver, S9, Phenobarbital and 5,6-benzoflavone, Method: Preincubation) was “inactive; negative. precipitation at highest dose”.
`O=C1CC2=C(CCCC2)c2c1c1c(c3c2=CC=C3)C=CC=1` was tested, and the mutagenic call [3] was “inactive; negative”.
In the case of `CC12OOC1(C)c1ccc3cccnc3c1O2` (centres undefined), the mutagenic call [1] is reported as “inactive; negative”.
`Brc1ccc2c(c1)[C@H]1O[C@H]1[C@H]1CCCC[C@H]21` was tested, and the mutagenic call (Test System: AMES SALMONELLA TYPHIMURIUM, Strain/Indicator: TA98, Metabolic Activation: NONE, Method: STANDARD PLATE) was “inactive; negative” and the mutagenic call [2] was “inactive; negative”.
In the case of `OCC(O)C1CO1` (centres undefined), the mutagenic call (End Point: IN VIVO MICRONUCLEUS, Test System: SPERMATID, Species: RAT, Strain/Sex: SPRAGUE-DAWLEY/MALE, Route: IP INJECTION) is reported as “active; positive”, the mutagenic call [2] is reported as “active; positive” and the mutagenic call [3] is reported as “active; positive”.
